Reference: publication PMC6753678, “Fueling Open Innovation for Malaria Transmission-Blocking Drugs: Hundreds of Molecules Targeting Early Parasite Mosquito Stages” (Frontiers in Microbiology, 2019)
Like-named read-outs stand apart in the source and are kept apart here.

What was measured:
[1] = tested on: 3D7-strain P. falciparum asexual parasites; experiment: P. falciparum asexual growth inhibition assay (Pf GIA); type: cell-based, Plasmodium falciparum; conditions: dose response confirmation; read-out: Pf asexual growth inhibition assays IC50
Outline: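 0.25% parasitemia, 2% Hct, RPMI/HEPES/hypoxanthine/5% Albumax; compound dose response, 72 h, 37°C, 5% CO2, 5% O2, 90% N2. Freeze-thaw, then LDH assay, A650. % inhibition vs chloroquine (50 μM)/DMSO, mean of 3 independent runs.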

HepG2 cells = experiment: HepG2 cytotoxicity assay; conditions: for Unified cytotox: HepG2 values of the three screens unified; for IC50: read-out: HepG2 cytotoxicity assay IC50, dose response confirmation; for Pb ODA (this manuscript) HepG2 cytoxicity: HepG2 cytotoxicity listed with the Pb ODA data set (this manuscript)
Outline: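 Here viability after a 48 h compound incubation (37°C, humidified 5% CO2) is measured by fluorescence and expressed as percent inhibition, with doxorubicin at 50 μM and DMSO as the bounding controls.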

[2] = tested on: P. berghei ookinete development; conditions: for % inhibition, Replicate A / % inhibition, Replicate B: primary screen at 1 μM
[3] = read-out: Pb ODA IC50, this manuscript
[4] = read-out: Pb Ookinete development assay IC50, dose response confirmation
[5] = read-out: Pb ODA (this manuscript) IC50, P. berghei ookinete development assay, this manuscript
[6] = read-out: Pb Ookinete development assay IC50

SMILES | IC50 [1] | HepG2 cytoxicity (Pb ODA, this manuscript) (HepG2 cells) | Unified cytotox (HepG2 cells) | IC50 (HepG2 cells) | Is compound selective in assay? Pb ODA active? ([2]; 1: YES, 0: NO) | % inhibition, Replicate A [2] | % inhibition, Replicate B [2] | IC50 [2, 3] | IC50 [2, 4] | Pb ODA (this manuscript) HepG2 cytoxicity (HepG2 cells) | Is compound selective in assay? Pb ODA active? [2] | IC50 [2, 5] | IC50 ([2]; read-out: Pb ODA IC50) | IC50 [2, 6]
Cc1cc(=O)c(-c2ccc(Oc3cccc(Cl)c3)cc2)c(C)[nH]1 [TCMDC-137265] | 1850 nM | 3.72 µM | 3.72 µM | 3720 nM | 0 (0: NO) | 110.80% | 102.47% | 1280 nM | 1280 nM |  |  |  |  | 
Cc1cc(=O)c(-c2ccc(Oc3cccc(OC(F)(F)F)c3)cc2)c(C)[nH]1 [TCMDC-137266] | 99 nM |  |  | 10700 nM |  | 74.10% | 97.06% |  | 205 nM | 10.72 µM | 1 (key: 1: YES; 0: NO) | 200 nM |  | 
CCCCCCCCCc1c(C)[nH]c2ccccc2c1=O [TCMDC-137268] | 168 nM |  |  | 67600 nM |  | 77.84% | 91.25% |  | 386 nM | 67.61 µM | 1 (key: 1: YES; 0: NO) | 390 nM |  | 
CCCCCCCc1c(C)[nH]c2ccc(F)cc2c1=O [TCMDC-137269] | 208 nM |  |  | 100000 nM |  | 57.79% | 78.85% |  | 319 nM | 100.00 µM | 1 (key: 1: YES; 0: NO) | 320 nM |  | 
CCC(CC)n1c(C)cc2c3c(N)nc(N)nc3ccc21 [TCMDC-137283] | < 0.2 nM | 0.0017 µM | 0.0017 µM | 1.7 nM | 0 (0: NO) | 93.53% | 103.53% | 850 nM | 846 nM |  |  |  |  | 
CCN(CC)S(=O)(=O)n1ncc2c3c(N)nc(N)nc3ccc21.Cl [TCMDC-137302] | 79 nM |  |  | 53.1 nM |  | 53.62% | 57.06% |  | 2000 nM | 0.0531 µM | 0 (key: 1: YES; 0: NO) |  |  | 
CCc1cc2c3c(N)nc(N)nc3ccc2n1C(C)(C)C [TCMDC-137306] | 3.2 nM | 0.0017 µM | 0.0017 µM | 1.7 nM | 0 (0: NO) | 81.63% | 92.90% | 1080 nM | 1080 nM |  |  |  |  | 
CCC(C)(C)n1c(C)cc2c3c(N)nc(N)nc3ccc21 [TCMDC-137307] | 0.9 nM | 0.00169 µM | 0.00169 µM | 1.69 nM |  | 47.56% | 73.34% |  |  |  |  |  | 1190 nM | 1190 nM
CCc1cc2c3c(N)nc(N)nc3ccc2n1C(C)CC (stereo not drawn) [TCMDC-137308] | < 0.2 nM | 0.0017 µM | 0.0017 µM | 1.7 nM | 0 (0: NO) | 67.31% | 61.54% | 690 nM | 694 nM |  |  |  |  | 
CCCc1cc2c3c(N)nc(N)nc3ccc2n1C(CC)CC [TCMDC-137312] | < 0.2 nM | 0.0017 µM | 0.0017 µM | 1.7 nM | 0 (0: NO) | 47.03% | 71.34% | 460 nM | 463 nM |  |  |  |  | 
CCC(CC)n1c(COC)cc2c3c(N)nc(N)nc3ccc21 [TCMDC-137313] | < 0.2 nM | 0.0017 µM | 0.0017 µM | 1.7 nM | 0 (0: NO) | 74.51% | 66.56% | 1350 nM | 1350 nM |  |  |  |  | 
COc1cc(Cn2ccc3c4c(N)nc(N)nc4ccc32)cc(OC)c1OC [TCMDC-137341] | < 0.3 nM | 0.0017 µM | 0.0017 µM | 1.7 nM |  | 61.35% | 58.11% |  |  |  |  |  | 560 nM | 556 nM
CNCCN(C)C(=O)Oc1c(Br)c(C)nc(C)c1-c1ccc(Oc2ccc(OC(F)(F)F)cc2)cc1.Cl [TCMDC-137377] | 71 nM |  |  | 8320 nM |  | 132.58% | 124.21% |  | 1480 nM | 8.32 µM | 0 (key: 1: YES; 0: NO) | 1480 nM |  | 
Cc1[nH]c(C)c(-c2ccc(Oc3ccc(Cl)cc3)cc2)c(=O)c1C [TCMDC-137378] | < 0.2 nM | 8.61 µM | 8.61 µM | 8610 nM | 1 (1: YES) | 87.44% | 100.49% | 640 nM | 636 nM |  |  |  |  | 
Cc1nc(C)c(-c2ccc(Oc3ccc(OC(F)(F)F)cc3)cc2)c(OC(=O)c2ccccc2)c1Cl [TCMDC-137380] | 173 nM |  |  | 37600 nM |  | 56.36% | 103.63% |  | 860 nM | 37.58 µM | 1 (key: 1: YES; 0: NO) |  |  | 
CC(=O)Oc1c(Cl)c(C)nc(C)c1-c1ccc(Oc2ccc(Cl)cc2)cc1 [TCMDC-137381] | 34 nM |  |  | 2630 nM |  | 96.93% | 129.91% |  | 98 nM | 2.63 µM | 1 (key: 1: YES; 0: NO) | 100 nM |  | 
Cc1nc(C)c(-c2ccc(Oc3ccc(OC(F)(F)F)cc3)cc2)c(OC(=O)c2ccc(CN(C)C)cc2)c1Cl [TCMDC-137382] | 127 nM |  |  | 24600 nM |  | 93.07% | 108.44% |  | 462 nM | 24.55 µM | 1 (key: 1: YES; 0: NO) | 460 nM |  | 
CC(=O)Oc1c(Br)c(C)nc(C)c1-c1ccc(Oc2ccc(OC(F)(F)F)cc2)cc1 [TCMDC-137383] | 150 nM |  |  | 9890 nM |  | 98.12% | 79.70% |  | 589 nM | 9.89 µM | 1 (key: 1: YES; 0: NO) | 590 nM |  | 
CC(=O)Oc1c(Cl)c(C)nc(C)c1-c1ccc(Oc2ccc(OC(F)(F)F)cc2)cc1 [TCMDC-137385] | 75 nM |  |  | 32000 nM |  | 89.00% | 125.42% |  | 1020 nM | 31.99 µM | 1 (key: 1: YES; 0: NO) | 1020 nM |  | 
Cc1[nH]c(C)c(-c2ccc(Oc3cccc(OC(F)(F)F)c3)cc2)c(=O)c1Cl [TCMDC-137389] | 470 nM |  |  | 100000 nM |  | 25.35% | 53.00% |  | 1130 nM | 100.00 µM | 1 (key: 1: YES; 0: NO) | 1130 nM |  | 
Cc1nc(C)c(-c2ccc(Oc3cc(Cl)cc(Cl)c3)cc2)c(O)c1Cl [TCMDC-137391] | 1.1 nM |  |  | 1.7 nM |  | 91.21% | 90.22% |  | 311 nM | 0.0017 µM | 0 (key: 1: YES; 0: NO) | 310 nM |  | 
Cc1nc(C)c(-c2ccc(Oc3cc(Cl)cc(Cl)c3)cc2)c(O)c1Br [TCMDC-137392] | 498 nM | 19.95 µM | 19.95 µM | 20000 nM | 1 (1: YES) | 78.18% | 115.81% | 450 nM | 447 nM |  |  |  |  | 
Cc1nc(C)c(-c2ccc(Oc3ccc(Cl)c(Cl)c3)cc2)c(O)c1Cl [TCMDC-137396] | 96 nM |  |  | 17000 nM |  | 89.72% | 133.12% |  | 124 nM | 16.98 µM | 1 (key: 1: YES; 0: NO) | 120 nM |  | 
Cc1nc(C)c(-c2ccc(Oc3ccc(Cl)c(Cl)c3)cc2)c(O)c1Br [TCMDC-137397] | 88 nM | 19.50 µM | 19.50 µM | 19500 nM | 1 (1: YES) | 88.28% | 102.35% |  | 90 nM |  |  |  |  | 
